The source of these data is patent US4873245A, “Isolation and structural elucidation of cephalostatins 1-4” (Arizona Board of Regents, priority 1988, dated 1989).

Assay [1] has as its system murine P388 lymphocytic leukemia. Kind of assay: U.S. National Cancer Institute's murine P388 lymphocytic leukemia (PS system), life extension of host. In kind it is in vivo. The following applies: for activity against murine P388 lymphocytic leukemia (PS system), in words: mouse, in vivo.
Assay [2] deals with P388 lymphocytic leukemia cell line. Kind of assay: PS in vitro: growth inhibition of P388 lymphocytic leukemia cell line, standard N.C.I. protocol. In kind it is cell-based, murine. The source says: Cephalostatin 1 was placed against the P388 lymphocytic leukemia cell line using standard National Cancer Institute ("N.C.I.") protocol with the following results:
Cephalostatin 2 was placed against the P388 lymphocytic leukemia cell line using standard National Cancer Institute ("N.C.I.") protocol with the following results:
Cephalostatin 3 was placed against the P388 lymphocytic leukemia cell line using standard National Cancer Institute ("N.C.I.") protocol with the following results:
Cephalostatin 4 was placed against the P388 lymphocytic leukemia cell line using standard National Cancer Institute ("N.C.I.") protocol with the following results: […]

Converted amounts (≈) assume the structure as drawn. Read-outs that look alike come from different tables or passages of the source.

With `C[C@@H]1[C@]2(O[C@H]3C=C4[C@@H]5CC[C@H]6Cc7nc8c(nc7C[C@]6(C)[C@H]5C[C@@H](O)[C@]4(C)[C@]31O)C[C@@H]1CC[C@H]3C4=CC[C@@H]5[C@H](C)[C@@]6(OC[C@]45C(=O)C[C@@H]3[C@@]1(C)C8)OC(C)(C)C[C@H]6O)O[C@](C)(CO)C[C@H]2O` [Cephalostatin 1], the “Life Extension” value in assay [1] (40 μg/Kg host body weight) came to 31%. The “activity against murine P388 lymphocytic leukemia (PS system), in words” value (from here on “activity”) in assay [1] is given as “confirmed active level”. In assay [2], the “ED50 (PS cell line)” value is 10^-7 to 10^-9 μg/ml.

With `C[C@@H]1[C@]2(O[C@H]3C=C4[C@@H]5CC[C@H]6Cc7nc8c(nc7C[C@]6(C)[C@H]5C[C@@H](O)[C@]4(C)[C@]31O)C[C@@H]1CC[C@H]3C4=CC[C@@H]5[C@H](C)[C@@]6(OC[C@]45C(=O)C[C@]3(O)[C@@]1(C)C8)OC(C)(C)C[C@H]6O)O[C@](C)(CO)C[C@H]2O` [Cephalostatin 2], the “Life Extension” value in assay [1] (40 μg/Kg host body weight) is given as 35%. In addition, in assay [1], the “activity” value is recorded as “confirmed active level”. The “ED50 (PS cell line)” value in assay [2] is listed as 10^-7 to 10^-9 μg/ml.

For `C[C@@H]1[C@]2(O[C@H]3C=C4[C@@H]5CC[C@H]6Cc7nc8c(nc7C[C@]6(C)[C@H]5C[C@@H](O)[C@]4(C)[C@]31O)C[C@@H]1CC[C@H]3C4=CC[C@@H]5[C@H](C)[C@@]6(OC[C@]45C(=O)C[C@]3(O)[C@@]1(C)C8)OC(C)(C)[C@@H](C)[C@H]6O)O[C@](C)(CO)C[C@H]2O` [Cephalostatin 3], the “Life Extension” value in assay [1] (40 μg/Kg host body weight) stood at 30%. In assay [1], the “activity” value is listed as “confirmed active level”. Besides, the “ED50 (PS cell line)” value in assay [2] is reported as 10^-7 to 10^-9 μg/ml.

Consider `C[C@@H]1[C@]2(O[C@H]3C=C4[C@@H]5CC[C@H]6Cc7nc8c(nc7C[C@]6(C)[C@H]5C[C@@H](O)[C@]4(C)[C@]31O)C[C@@H]1CC[C@H]3[C@@]45O[C@@H]4C[C@@H]4[C@H](C)[C@@]6(OC[C@@]45C(=O)C[C@]3(O)[C@@]1(C)C8)OC(C)(C)C[C@H]6O)O[C@](C)(CO)C[C@H]2O` [Cephalostatin 4], for which the “Life Extension” value in assay [1] (100 μg/Kg host body weight) is 25%. Besides, in assay [1], the “activity” value is “confirmed active level”. The “ED50 (PS cell line)” value was 0.00055 µg/mL (≈ 0.583 nM) in assay [2] and 10^-7 to 10^-9 μg/ml in assay [2] (listed as cephalostatin 4).
